Laboratory results reported in patent publication US11332463B2, “Spiropiperidine allosteric modulators of nicotinic acetylcholine receptors” (Merck Sharp & Dohme Corp., priority 2018, dated 2022).
Read-outs that look alike come from different tables or passages of the source.

Molecular target: T1, human α7 nicotinic acetylcholine receptor (HEK cell line stably expressing human RIC-3 and human α7) (Homo sapiens, UniProt P36544)
T1 construct: host or cells: HEK cell line (PrecisION hnAChR α7/RIC-3)
Test: Automated patch-clamp electrophysiology functional assay (Assay A), IonFlux HT, whole-cell population patch
Type: cell-based
Experimental: The α7 nAChR positive allosteric modulator (PAM) activity of the present compounds may be tested using assays known in the art. […] The assay was performed using the IonFlux HT in a whole-cell, population patch configuration. See Golden et al. Assay Drug Dev. Technol. […] The compounds were assessed for their ability to modulate the function of the human 7 nAChR stably expressed in a HEK cell line both in the presence, and in the absence of the natural 7 agonist acetylcholine. By performing a series of such measurements at different concentrations, the effective concentration of the 7 nAChR PAMs (EC50) was determined. See Spencer et al. Assay Drug Dev. Technol.
Direct activation of α7 (agonism), and potentiation of acetylcholine-evoked 7 currents was determined as follows:
Automated patch-clamp electrophysiology was performed using the IonFlux HT (Fluxion Biosciences Inc., San Francisco, Calif.) in the whole-cell, population patch configuration. Test compounds were assessed for their ability to modulate the function of the α7 nicotinic acetylcholine receptor both in the presence, and in the absence of the natural α7 agonist acetylcholine. […] Immediately prior to assay, cells were detached by first aspirating growth media, rinsing with Dulbecco's phosphate buffered saline, and then adding 10 mL of Accutase (Innovative Cell Technologies, San Diego, Calif.) to the flask and then incubating at 37° C. for 5 minutes. Detached cells were then recovered by the addition of 40 mL of CHO-serum-free media supplemented with 25 mM HEPES, and rocked gently in a 50 mL conical tube for 20 minutes prior to patch-clamp assay. After recovery, cells were pelleted by centrifugation at 1,000 RPM for 1 minute in a compact bench top centrifuge; recovery media was aspirated and cells were resuspended in external recording solution (150 mM NaCl, 5 mM KCl, 2 mM CaCl2), 1 mM MgCl2, 10 mM HEPES, 12 mM dextrose) to a density of 5.0×10^6 cells/mL. The cell suspension was added to the cell inlet wells on an IonFlux HT population patch plate which had previously been rinsed and primed with deionized H2O. Test compounds were serially diluted in DMSO and then resuspended to the final test concentration in external recording solution, with, or without 40 μM acetylcholine added to the external recording solution; test compounds were then transferred to the IonFlux HT population patch plate. Internal recording solution (110 mM TrisPO4, 28 mM TrisBase, 0.1 mM CaCl2, 2 mM MgCl2, 11 mM EGTA, 4 mM MgATP) was added to the internal recording solution inlet wells on the IonFlux HT patch plate previously loaded with cells and test compounds, and the plate loaded into the IonFlux HT instrument. A protocol was executed on the IonFlux HT to trap the cells, break into the cells, and establish the whole-cell recording configuration; cells were voltage-clamped at a holding potential of −60 mV for the duration of the experiment, all experiments were conducted at room temperature, and the IonFlux HT injection pressure was 8 psi for solution applications. Upon establishing the whole-cell configuration, external recording solution was perfused into the recording chambers for 120 seconds and then 40 μM acetylcholine was applied for 1 second and immediately washed off with external recording solution for 60 seconds. The 40 μM acetylcholine-evoked α7 current served as the current response to which subsequent test compound effects, in the presence, or in the absence of 40 μM acetylcholine would be quantified relative to. Next, test compounds were evaluated at multiple concentrations for their ability to induce, or modulate 7 current responses; three concentrations of test compound were evaluated in ascending dose fashion per recording.

[1] = HEK cells expressing human α7/RIC-3, test compound with or without 40 μM acetylcholine, holding potential −60 mV, room temperature, read-out: α7 nAChR Potency
[2] = automated patch-clamp electrophysiology functional assay (Assay A), read-out: α7 nAChR EC50

T1 sequence (P36544 23-502): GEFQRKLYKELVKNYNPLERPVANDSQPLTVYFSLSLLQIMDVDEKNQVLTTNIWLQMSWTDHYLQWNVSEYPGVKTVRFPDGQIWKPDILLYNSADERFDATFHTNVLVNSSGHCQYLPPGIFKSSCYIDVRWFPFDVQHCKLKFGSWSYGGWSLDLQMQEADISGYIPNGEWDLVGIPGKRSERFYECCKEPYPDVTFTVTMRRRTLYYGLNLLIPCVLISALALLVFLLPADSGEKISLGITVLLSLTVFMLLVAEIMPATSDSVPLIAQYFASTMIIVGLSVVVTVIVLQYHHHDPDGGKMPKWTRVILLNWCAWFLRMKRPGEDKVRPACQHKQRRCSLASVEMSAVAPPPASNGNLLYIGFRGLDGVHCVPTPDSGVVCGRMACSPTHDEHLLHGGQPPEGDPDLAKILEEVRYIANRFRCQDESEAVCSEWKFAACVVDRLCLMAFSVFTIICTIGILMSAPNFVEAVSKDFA

| SMILES | EC50 [1] [nM] | EC50 [2] [nM] | EC50 (α7 nAChR EC50 (nM), automated patch-clamp electrophysiology functional assay (Assay A)) [nM] | EC50 (α7 nAChR Potency, HEK cells expressing human α7/RIC-3, test compound with or without 40 μM acetylcholine, holding potential −60 mV, room temperature) [nM] |
| --- | --- | --- | --- | --- |
| NS(=O)(=O)N1CCC2(CC1)[C@@H](c1nc(-c3ccc(F)cc3C(F)(F)F)no1)C2(F)F [Example H2] | 500 to 5000 | 2900 | – | – |
| COc1ccc(Cl)cc1-c1noc([C@@H]2CC23CCN(S(N)(=O)=O)CC3)n1 [Example A1] | 100 to 500 | 490 | – | – |
| NS(=O)(=O)N1CCC2(CC2c2nc(-c3conc3C3CC3)no2)C(F)C1 (single isomer, unassigned) [Example I9] | 500 to 5000 | 3300 | – | – |
| NS(=O)(=O)N1CCC2(CC1)[C@H](c1noc(-c3cnn4c3CSC4)n1)C2(F)F [Example E53] | 500 to 5000 | 1200 | – | – |
| Cc1onc(C2CC2)c1-c1cnc([C@@H]2CC23CCN(S(N)(=O)=O)CC3)o1 [Example 28, (1R)-1-[5-(3-Cyclopropyl-5-methylisoxazol-4-yl)-1,3-oxazol-2-yl]-6-azaspiro[2.5]octane-6-sulfonamide] | 100 to 500 | 120 | – | – |
| Cc1ccc(-c2nc([C@@H]3CC34CCN(S(N)(=O)=O)CC4)no2)c(C)c1 [Example D19] | 100 to 500 | – | – | – |
| COc1ccc(Cl)cc1-c1noc(C2CC23CCN(S(N)(=O)=O)CC3)n1 (racemic) [Example C13] | 500 to 5000 | – | – | – |
| NS(=O)(=O)N1CCC2(CC1)[C@H](c1noc(-c3cccnc3)n1)C2(F)F [Example E56] | 500 to 5000 | 2600 | – | – |
| Cc1cn(C2CC2)nc1-c1nc([C@@H]2C(F)(F)C23CCN(S(N)(=O)=O)CC3)no1 [Example 25, (2R)-2-[5-(1-Cyclopropyl-4-methyl-1H-pyrazol-3-yl)-1,2,4-oxadiazol-3-yl]-1,1-difluoro-6-azaspiro[2.5]octane-6-sulfonamide] | 100 to 500 | 210 | – | – |
| NS(=O)(=O)N1CCC2(CC1)C(c1nc(-c3ccnc(OC(F)F)c3)no1)C2(F)F (stereo not drawn) [Example C9] | 100 to 500 | 310 | – | – |
| Cn1nc2c(c1-c1nc([C@@H]3C(F)(F)C34CCN(S(N)(=O)=O)CC4)no1)CCCC2 [Example E66] | 100 to 500 | 120 | – | – |
| CC(C)(C)n1nccc1-c1nc([C@@H]2C(F)(F)C23CCN(S(N)(=O)=O)CC3)no1 [Example E35] | 100 to 500 | 250 | – | – |
| COc1ccc(-c2nc([C@@H]3CC34CCN(S(N)(=O)=O)CC4)no2)cc1 [Example D13] | 500 to 5000 | 700 | – | – |
| NS(=O)(=O)N1CCC2(CC1)C[C@H]2c1noc(-c2ccnc(OCC(F)(F)F)c2)n1 [Example E18] | 500 to 5000 | 1100 | – | – |
| NS(=O)(=O)N1CCC2(C(F)C1)C(c1nc(-c3conc3C3CC3)no1)C2(F)F (single isomer, unassigned) [Example I14] | 100 to 500 | 330 | – | – |
| Cc1ncccc1-c1nc([C@@H]2CC23CCN(S(N)(=O)=O)CC3)no1 [Example E2] | 500 to 5000 | 1100 | – | – |
| CS(=O)(=O)N1CCC2(CC1)C(c1nc(-c3ccc(F)cc3C(F)(F)F)no1)C2(F)F (stereo not drawn) [Example 21, 1,1-Difluoro-2-{3-[4-fluoro-2-(trifluoromethyl)phenyl]-1,2,4-oxadiazol-5-yl}-6-(methylsulfonyl)-6-azaspiro[2.5]octane] | 500 to 5000 | 670 | – | – |
| Cn1nc(C(F)(F)F)cc1-c1nc([C@@H]2C(F)(F)C23CCN(S(N)(=O)=O)CC3)no1 [Example E45] | 500 to 5000 | 550 | – | – |
| NS(=O)(=O)N1CCC2(CC1)C[C@H]2c1noc(-c2conc2C(F)(F)F)n1 [Example E29] | 500 to 5000 | 1600 | – | – |
| NS(=O)(=O)N1CCC2(CC1)C[C@H]2c1nc(-c2ccc(F)cc2C(F)(F)F)no1 [Example 5, (1R)-1-{3-[4-Fluoro-2-(trifluoromethyl)phenyl]-1,2,4-oxadiazol-5-yl}-6-azaspiro[2.5]octane-6-sulfonamide] | 500 to 5000 | 1200 | – | – |

| SMILES | EC50 [1] [nM] | EC50 [2] [nM] | EC50 (α7 nAChR EC50 (nM), automated patch-clamp electrophysiology functional assay (Assay A)) [nM] | EC50 (α7 nAChR Potency, HEK cells expressing human α7/RIC-3, test compound with or without 40 μM acetylcholine, holding potential −60 mV, room temperature) [nM] |
| --- | --- | --- | --- | --- |
| NS(=O)(=O)N1CCC2(CC1)C[C@H]2c1noc(-c2ccnnc2C2CC2)n1 [Example E50] | 500 to 5000 | 1400 | – | – |
| Cc1cc(C)c(-c2nc(C3CC34CCN(S(N)(=O)=O)CC4)no2)cc1C (stereo not drawn) [Example D25] | 100 to 500 | 130 | – | – |
| NS(=O)(=O)N1CCC2(CC2c2nc(-c3cccc(OC(F)F)c3)no2)C(F)C1 (stereo not drawn) [Example 4, 1-{3-[3-(Difluoromethoxy)phenyl]-1,2,4-oxadiazol-5-yl}-4-fluoro-6-azaspiro[2.5]octane-6-sulfonamide] | 100 to 500 | 350 | – | – |
| NS(=O)(=O)N1CCC2(C(F)C1)C(c1nc(-c3ccc(F)cc3C(F)(F)F)no1)C2(F)F (stereo not drawn) [Example I18] | 100 to 500 | 320 | – | – |
| Cn1cc(-c2conc2C2CC2)nc1[C@@H]1C(F)(F)C12CCN(S(N)(=O)=O)CC2 [Example G7] | 500 to 5000 | 1600 | – | – |
| Cc1onc(C2CC2)c1-c1nnc([C@@H]2CC23CCN(S(N)(=O)=O)CC3)o1 [Example F11] | – | – | 410 | 100 to 500 |
| CC(C)C1CC(c2nc([C@@H]3CC34CCN(S(N)(=O)=O)CC4)no2)C1 (mixture of isomers) [Example E3] | 500 to 5000 | 1900 | – | – |
| NS(=O)(=O)N1CCC2(CC1)C[C@H]2c1noc(-c2ccc(C(F)(F)F)cc2OC(F)F)n1 [Example D9] | 500 to 5000 | 820 | – | – |
| NS(=O)(=O)N1CCC2(CC1)[C@H](c1cc(-c3ccnc(OC(F)F)c3)no1)C2(F)F [Example G6] | < 100 | 86 | – | – |
| NS(=O)(=O)N1CCC2(CC1)CC2c1nc(-c2c(C(F)(F)F)noc2C2CC2)no1 (stereo not drawn) [Example C12] | 100 to 500 | 170 | – | – |
| NS(=O)(=O)N1CCC2(CC1)[C@H](c1nc(-c3conc3C3CC3)no1)C2(F)F [Example 11, (2R)-2-[3-(3-Cyclopropylisoxazol-4-yl)-1,2,4-oxadiazol-5-yl]-1,1-difluoro-6-azaspiro[2.5]octane-6-sulfonamide] | < 100 | 58 | – | – |
| NS(=O)(=O)N1CCC2(CC1)C[C@H]2c1nnc(-c2cccc(OC(F)(F)F)c2)o1 [Example F3] | 500 to 5000 | 700 | – | – |
| Cc1ccccc1-c1nnc([C@@H]2C(F)(F)C23CCN(S(N)(=O)=O)CC3)s1 [Example F14] | 100 to 500 | 290 | – | – |
| Cc1ccccc1-c1nnc([C@@H]2C(F)(F)C23CCN(S(N)(=O)=O)CC3)o1 [Example F13] | 100 to 500 | 400 | – | – |
| NS(=O)(=O)N1CCC2(CC1)C[C@H]2c1noc(-c2cccnc2OCC(F)(F)F)n1 [Example E59] | 100 to 500 | 220 | – | – |
| Cc1cn(C2CC2)c2ccc(-c3nc([C@@H]4CC45CCN(S(N)(=O)=O)CC5)no3)cc12 [Example E1] | 100 to 500 | 310 | – | – |
| NS(=O)(=O)N1CCC2(CC1)C[C@H]2c1noc(-c2cccc(C(F)(F)F)n2)n1 [Example E17] | 500 to 5000 | 1400 | – | – |
| Cn1ncc(-c2nc([C@@H]3C(F)(F)C34CCN(S(N)(=O)=O)CC4)no2)c1C(F)(F)F [Example E38] | 100 to 500 | 270 | – | – |
| COc1ccc(Cl)cc1-c1noc(C2CC23CCN(S(=O)(=O)Cc2ccccn2)CC3)n1 (racemic) [Example B1] | 500 to 5000 | 2300 | – | – |
| Cc1ccc(C)c(-c2nc(C3C(F)(F)C34C3CCC4CN(S(N)(=O)=O)C3)no2)c1 (single isomer, unassigned) [Example K1] | < 100 | 87 | – | – |
